Experiment [1] has as its system Triticum aestivum cv. Hereward leaf segments. Description: Senescence bioassay on detached wheat leaf segments (chlorophyll retention). On the procedure: Seeds of winter wheat, Triticum aestivum cv. Hereward, were washed under running water for 24 hours and then sown on vermiculite soaked with Knop's solution. They were placed in the growth chamber at 25° C. with a 16/8 h light period at […]. After 7 days, the first leaf was fully developed and the second leaf had started to grow. A tip section of the first leaf, approximately 35 mm long, was removed from 5 seedlings and trimmed slightly to a combined weight of 100 mg. The basal ends of the five leaf tips were placed in the wells of a microtiter polystyrene plate containing 150 μL of the tested derivative solution each. The entire plate was inserted into a plastic box lined with paper tissues soaked in distilled water to prevent leaf sections from drying out. After 96 h incubation in the dark at 25° C., the leaves were removed and chlorophyll extracted by heating at 80° C. for 10 min in 5 mL of 80% ethanol (v/v). The sample volume was then restored to 5 mL by the addition of 80% ethanol (v/v). The absorbance of the extract was recorded at 665 nm. In addition, chlorophyll extracts from fresh leaves and leaf tips incubated in deionised water were measured. The results are means of five replicates and the entire test was repeated twice. […] The compounds to be tested were dissolved in dimethylsulfoxide (DMSO) and the solution brought up to 10^−3 M with distilled water. […] The activity obtained for 10^−4 M of BAP was postulated as 100%. Kinetin was used as the second standard. Newly prepared compounds generally exceeded the efficiency of standard (BAP) by 10% of its activity (Tab. 5).

Experiment [2] deals with HaCaT. Kind of experiment: Calcein AM cytotoxicity assay. Format: cell-based. The following applies: Homo sapiens, 72 hrs. The text has this:
(§1) One of the parameters used as the base for cytotoxic analysis is metabolic activity of viable cells. Microtiter assay, which uses the Calcein AM, is now widely used to quantify cell proliferation and cytotoxicity. The quantity of […] Calcein AM corresponds to the number of viable cells in culture. The cell lines of breast cancer (MCF-7), human erythromleukemia (K562), BJ human fibroblast cells (BJ) and human keratinocyte cell line (HaCaT) were used for routine screening of cytotoxicity of the compounds. The cells were maintened in Nunc/Corning 80 cm^2 plastic bottles and grown in media for cell culture (DMEM containing 5 g/l of glucose, 2 mM of glutamin, 100 U/ml of penicilin, 100 μg/ml of streptomycin, 10% of fetal bovine serum and sodium hydrogencarbonate). Cell suspensions were diluted according to cell types and according to expected final cell density (10^4 of cells per well according to characteristics of cell growth), pippeted 80 μl of cell suspension on 96-well microtiter plates. Innoculates were stabilized by 24 hrs preincubation at 37° C. in CO2. Particular concentrations of tested compounds were added in time zero as 20 μl aliquotto wells of microtiter plates. Usually, the compounds were diluted into six concentrations in four-fold dilution series. In routine testing, the highest well concentration was 166.7 μM, of change dependent on the substance. All drug concentrations were examined in duplicates. The incubation of cells with tested derivatives lasted 72 hrs at 37° C., 100% humidity and in the atmosphere of CO2. At the end of the incubation period, the cells were tested and analysed according to the addition of Calcein AM (Molecular probes) solution and the incubation lasted for next 1 hour. Fluorescence (FD) was measured using Labsystem FIA reader Fluorskan Ascent (Microsystems). The survival of tumor cells (The tumor cell survival-TCS) was counted according to equation: […](FDwell with derivative/FDcontrol well)×100%. The value of GI50, that is equal to the concentration of compound at which 50% of tumour cells are terminated. To evaluate the antitumor activity was tested toxicity of new derivatives on panel of cell lines of different histogenetic and species origin (Tab. 6, G150 concentration given in μM). […] Effective derivatives killed tumor cells in concentrations close to 0.1 to 50. None of the newly prepared compounds only reached the value.

The test system of experiment [3] is MCF-7. Description: Calcein AM cytotoxicity assay. Format: cell-based. The note with it: Homo sapiens, MCF7, 72 hrs.
Description: as §1

Experiment [4] has as its system BJ human fibroblast cells. Description: Calcein AM cytotoxicity assay. In kind it is cell-based. The note with it: 72 hrs.
Description: as §1

Experiment [5] deals with K562. Kind of experiment: Calcein AM cytotoxicity assay. In kind it is cell-based. The following applies: Homo sapiens, 72 hrs.
Description: as §1

The values below come from patent US10774084B2, “Adenine derivatives and their use as UV-photoprotective agents” (UNIVERZITA PALACKEHO V OLOMOUCI, priority 2015, dated 2020).

Structures are written as SMILES.

`c1coc(CNc2ncnc3c2ncn3C2CCCO2)c1` (stereo not drawn) [6-furfurylamino-9-(tetrahydrofuran-2-yl)purine]: in experiment [1] (96 h in the dark), the maximum effective concentration is reported as 10^−4 mol · l^−1. The “activity (%) [10^−4 mol · l^−1 BAP = 100%]” value in experiment [1] (at maximum effective concentration) was 114 ± 3%. Besides, the concentration for 50% growth inhibition (GI50) in experiment [2], in experiment [3], in experiment [4] and in experiment [5] was more than 100 µM in each case.
